Test results: PubChem BioAssay AID1963841 (Molecular Pharmacology Branch, DTP, NCI, 2024)

Tested on: 439559-082-T-J2-PDC spheroid viability
Assay: Anticancer human tumor 439559-082-T-J2-PDC patient-derived colon adenocarcinoma cell line growth inhibition [POLQ]
Details: spheroids with HUVEC and MSC; for IC50: curve of first compound; for viability, T/C: stronger effect = lower value
In short: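 Patient-derived tumour cells were co-cultured with HUVEC and mesenchymal stem cells as multicellular spheroids at 37 °C. They were treated with POLQ inhibitors (novobiocin, ART-558, RP6685) alone or combined with other agents. Top concentrations were at or near clinical Cmax (otherwise 10 microM; SN-38 at 1 microM), decreasing in half-log steps.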

[1] = second compound 0.0316 µM, first compound 0.00316 µM
[2] = second compound 0.0316 µM, first compound 0.01 µM
[3] = second compound 0.0316 µM, first compound 0.0316 µM
[4] = second compound 0.0316 µM, first compound 0.1 µM
[5] = second compound 0.0316 µM, first compound 0.316 µM
[6] = second compound 0.0316 µM, first compound 1 µM
[7] = second compound 0.1 µM, first compound 0.00316 µM
[8] = second compound 0.1 µM, first compound 0.01 µM
[9] = second compound 0.1 µM, first compound 0.0316 µM
[10] = second compound 0.1 µM, first compound 0.1 µM
[11] = second compound 0.1 µM, first compound 0.316 µM
[12] = second compound 0.1 µM, first compound 1 µM
[13] = second compound 0.316 µM, first compound 0.00316 µM
[14] = second compound 0.316 µM, first compound 0.01 µM
[15] = second compound 0.316 µM, first compound 0.0316 µM
[16] = second compound 0.316 µM, first compound 0.1 µM
[17] = second compound 0.316 µM, first compound 0.316 µM
[18] = second compound 0.316 µM, first compound 1 µM
[19] = second compound 1 µM, first compound 0.00316 µM
[20] = second compound 1 µM, first compound 0.01 µM
[21] = second compound 1 µM, first compound 0.0316 µM
[22] = second compound 1 µM, first compound 0.1 µM
[23] = second compound 1 µM, first compound 0.316 µM
[24] = second compound 1 µM, first compound 1 µM
[25] = second compound 3.16 µM, first compound 0.00316 µM
[26] = second compound 3.16 µM, first compound 0.01 µM
[27] = second compound 3.16 µM, first compound 0.0316 µM
[28] = second compound 3.16 µM, first compound 0.1 µM
[29] = second compound 3.16 µM, first compound 0.316 µM
[30] = second compound 3.16 µM, first compound 1 µM
[31] = second compound 10 µM, first compound 0.00316 µM
[32] = second compound 10 µM, first compound 0.01 µM
[33] = second compound 10 µM, first compound 0.0316 µM
[34] = second compound 10 µM, first compound 0.1 µM
[35] = second compound 10 µM, first compound 0.316 µM
[36] = second compound 10 µM, first compound 1 µM
[37] = second compound 0.0316 µM, first compound 3.16 µM
[38] = second compound 0.0316 µM, first compound 10 µM
[39] = second compound 0.1 µM, first compound 3.16 µM
[40] = second compound 0.1 µM, first compound 10 µM
[41] = second compound 0.316 µM, first compound 3.16 µM
[42] = second compound 0.316 µM, first compound 10 µM
[43] = second compound 1 µM, first compound 3.16 µM
[44] = second compound 1 µM, first compound 10 µM
[45] = second compound 3.16 µM, first compound 3.16 µM
[46] = second compound 3.16 µM, first compound 10 µM
[47] = second compound 10 µM, first compound 3.16 µM
[48] = second compound 10 µM, first compound 10 µM
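Also: spheroids exposed to compounds for seven days before readout.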
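For viability, T/C in this document: 100% = DMSO vehicle control viability.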

C=CCn1c(=O)c2cnc(Nc3ccc(N4CCN(C)CC4)cc3)nc2n1-c1cccc(C(C)(C)O)n1 + Nc1ccc(C#CCN(C(=O)Cc2ncc(C(F)(F)F)cc2C(F)(F)F)c2ccc(F)cc2)nn1
IC50 (second compound 0.0316 µM): > 1 µM
IC50 (second compound 0.1 µM): > 1 µM
IC50 (second compound 0.316 µM): > 1 µM
IC50 (second compound 1 µM): > 1 µM
IC50 (second compound 3.16 µM): > 1 µM
IC50 (second compound 10 µM): > 1 µM
viability, T/C [1]: 111%
viability, T/C [2]: 109%
viability, T/C [3]: 109%
viability, T/C [4]: 105%
viability, T/C [5]: 97.5%
viability, T/C [6]: 84.7%
viability, T/C [7]: 108%
viability, T/C [8]: 94.4%
viability, T/C [9]: 100%
viability, T/C [10]: 95.5%
viability, T/C [11]: 97.9%
viability, T/C [12]: 78.6%
viability, T/C [13]: 108%
viability, T/C [14]: 115%
viability, T/C [15]: 97.3%
viability, T/C [16]: 99.1%
viability, T/C [17]: 97.5%
viability, T/C [18]: 84%
viability, T/C [19]: 105%
viability, T/C [20]: 102%
viability, T/C [21]: 98.4%
viability, T/C [22]: 101%
viability, T/C [23]: 103%
viability, T/C [24]: 78.7%
viability, T/C [25]: 99.6%
viability, T/C [26]: 107%
viability, T/C [27]: 98.8%
viability, T/C [28]: 99.4%
viability, T/C [29]: 89.5%
viability, T/C [30]: 79.3%
viability, T/C [31]: 105%
viability, T/C [32]: 109%
viability, T/C [33]: 103%
viability, T/C [34]: 105%
viability, T/C [35]: 99.9%
viability, T/C [36]: 71.2%

CCc1c2c(nc3ccc(O)cc13)-c1cc3c(c(=O)n1C2)COC(=O)[C@]3(O)CC + Nc1ccc(C#CCN(C(=O)Cc2ncc(C(F)(F)F)cc2C(F)(F)F)c2ccc(F)cc2)nn1
IC50 (second compound 0.0316 µM): > 1 µM
IC50 (second compound 0.1 µM): > 1 µM
IC50 (second compound 0.316 µM): > 1 µM
IC50 (second compound 1 µM): > 1 µM
IC50 (second compound 3.16 µM): 0.875 µM
IC50 (second compound 10 µM): 0.84 µM
viability, T/C [1]: 102%
viability, T/C [2]: 79.3%
viability, T/C [3]: 75.1%
viability, T/C [4]: 83.4%
viability, T/C [5]: 81.6%
viability, T/C [6]: 52.8%
viability, T/C [7]: 91.4%
viability, T/C [8]: 79.4%
viability, T/C [9]: 71%
viability, T/C [10]: 73.1%
viability, T/C [11]: 75.7%
viability, T/C [12]: 55.1%
viability, T/C [13]: 88.5%
viability, T/C [14]: 80.6%
viability, T/C [15]: 63.4%
viability, T/C [16]: 74.9%
viability, T/C [17]: 90.4%
viability, T/C [18]: 53.1%
viability, T/C [19]: 93.3%
viability, T/C [20]: 81%
viability, T/C [21]: 75%
viability, T/C [22]: 68.2%
viability, T/C [23]: 86%
viability, T/C [24]: 50.6%
viability, T/C [25]: 87.5%
viability, T/C [26]: 81.2%
viability, T/C [27]: 69.2%
viability, T/C [28]: 72.9%
viability, T/C [29]: 81.5%
viability, T/C [30]: 46.5%
viability, T/C [31]: 92.6%
viability, T/C [32]: 74.4%
viability, T/C [33]: 76.8%
viability, T/C [34]: 73.9%
viability, T/C [35]: 80%
viability, T/C [36]: 44.8%

CNCc1ccc(-c2[nH]c3cc(F)cc4c3c2CCNC4=O)cc1 + Nc1ccc(C#CCN(C(=O)Cc2ncc(C(F)(F)F)cc2C(F)(F)F)c2ccc(F)cc2)nn1
IC50 (second compound 0.0316 µM): > 10 µM
IC50 (second compound 0.1 µM): > 10 µM
IC50 (second compound 0.316 µM): > 10 µM
IC50 (second compound 1 µM): > 10 µM
IC50 (second compound 3.16 µM): > 10 µM
IC50 (second compound 10 µM): > 10 µM
viability, T/C [3]: 91.6%
viability, T/C [4]: 106%
viability, T/C [5]: 102%
viability, T/C [6]: 87.2%
viability, T/C [37]: 116%
viability, T/C [38]: 97.7%
viability, T/C [9]: 100%
viability, T/C [10]: 95.3%
viability, T/C [11]: 97.5%
viability, T/C [12]: 101%
viability, T/C [39]: 102%
viability, T/C [40]: 110%
viability, T/C [15]: 109%
viability, T/C [16]: 108%
viability, T/C [17]: 87.4%
viability, T/C [18]: 96.4%
viability, T/C [41]: 105%
viability, T/C [42]: 101%
viability, T/C [21]: 101%
viability, T/C [22]: 97.4%
viability, T/C [23]: 105%
viability, T/C [24]: 90.5%
viability, T/C [43]: 107%
viability, T/C [44]: 122%
viability, T/C [27]: 100%
viability, T/C [28]: 112%
viability, T/C [29]: 111%
viability, T/C [30]: 97.4%
viability, T/C [45]: 110%
viability, T/C [46]: 98.2%
viability, T/C [33]: 94.8%
viability, T/C [34]: 104%
viability, T/C [35]: 110%
viability, T/C [36]: 102%
viability, T/C [47]: 104%
viability, T/C [48]: 105%

O=C(c1cc(Cc2n[nH]c(=O)c3ccccc23)ccc1F)N1CCN(C(=O)C2CC2)CC1 + Nc1ccc(C#CCN(C(=O)Cc2ncc(C(F)(F)F)cc2C(F)(F)F)c2ccc(F)cc2)nn1
IC50 (second compound 0.0316 µM): > 10 µM
IC50 (second compound 0.1 µM): > 10 µM
IC50 (second compound 0.316 µM): > 10 µM
IC50 (second compound 1 µM): > 10 µM
IC50 (second compound 3.16 µM): > 10 µM
IC50 (second compound 10 µM): > 10 µM
viability, T/C [3]: 93.4%
viability, T/C [4]: 97.3%
viability, T/C [5]: 93.4%
viability, T/C [6]: 101%
viability, T/C [37]: 94.3%
viability, T/C [38]: 98%
viability, T/C [9]: 93.1%
viability, T/C [10]: 106%
viability, T/C [11]: 89.1%
viability, T/C [12]: 117%
viability, T/C [39]: 92.8%
viability, T/C [40]: 99.8%
viability, T/C [15]: 91.5%
viability, T/C [16]: 105%
viability, T/C [17]: 86.8%
viability, T/C [18]: 96.1%
viability, T/C [41]: 106%
viability, T/C [42]: 96.9%
viability, T/C [21]: 104%
viability, T/C [22]: 107%
viability, T/C [23]: 94.1%
viability, T/C [24]: 108%
viability, T/C [43]: 84.7%
viability, T/C [44]: 104%
viability, T/C [27]: 88%
viability, T/C [28]: 116%
viability, T/C [29]: 98.3%
viability, T/C [30]: 106%
viability, T/C [45]: 103%
viability, T/C [46]: 98.3%
viability, T/C [33]: 92.8%
viability, T/C [34]: 87.9%
viability, T/C [35]: 95.5%
viability, T/C [36]: 90.7%
viability, T/C [47]: 98.2%
viability, T/C [48]: 103%
